Data: article PMC6218659, “Structures of DPAGT1 Explain Glycosylation Disease Mechanisms and Advance TB Antibiotic Design” (Cell, 2018)

Legend:
[1] = target: T1, DPAGT1 (Homo sapiens, UniProt Q9H3H5); experiment: Radiolabeled substrate enzyme activity assay; type: biochemical, H. sapiens; conditions: WT DPAGT1, non-titrated substrate at 200 μM
T1 construct: H. sapiens DPAGT1 (1-408, N-terminal 6 x HIS tag, TEV cleavage site); 6xHis purification tag with TEV site (N, cleaved yes); made in house; host or cells: Spodoptera frugiperda Sf9 insect cells (baculovirus)
T1 sequence (Q9H3H5 1-408): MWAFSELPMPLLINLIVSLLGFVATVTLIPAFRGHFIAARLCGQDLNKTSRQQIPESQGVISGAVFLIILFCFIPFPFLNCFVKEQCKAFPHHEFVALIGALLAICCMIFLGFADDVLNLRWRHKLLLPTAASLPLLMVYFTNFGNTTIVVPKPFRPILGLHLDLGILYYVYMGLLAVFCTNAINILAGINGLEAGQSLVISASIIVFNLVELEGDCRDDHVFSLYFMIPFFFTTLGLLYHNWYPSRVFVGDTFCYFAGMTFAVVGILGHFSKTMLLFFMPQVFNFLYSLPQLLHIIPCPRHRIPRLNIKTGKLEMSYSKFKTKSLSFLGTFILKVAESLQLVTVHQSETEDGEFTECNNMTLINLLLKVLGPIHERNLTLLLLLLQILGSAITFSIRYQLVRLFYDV
Description: 2 μl of 2 μM DPAGT1 WT or mutant proteins in GFB buffer supplemented with 5mM extra MgCl2, 1% OGNG/CHS/cardiolipin and dolichyl monophosphate was combined with 2 μl of UDP-N-acetyl [1-14C] […] The reaction was terminated by the addition of 6 μl of 100% methanol and immediately transferred onto ice. 1 μl of sample was spotted onto a silica coated TLC plate in triplicate and run with a mobile phase consisting of chloroform, methanol, and water at a 65:25:4 ratio respectively. After the run, the TLC plate was dried thoroughly, wrapped in cling film, incubated with a phosphor imaging substrate for 4 days, then phosphor imaged using a Biorad. The pixel density of the spots corresponding to the hydrophobic product was divided by combined pixel density of the product and the substrate and multiplied by the known concentration of substrate added to ascertain the amount of product formed.

[2] = target: T2, DPAGT1 Arg301Cys (Homo sapiens, UniProt Q9H3H5, R301C); experiment: Thermostability assay (label free differential scanning fluorimetry); type: binding, H. sapiens; conditions: 50 μM compound
T2 construct: combined with the LIC-adapted primers to amplify the complete DPAGT1 gene, including the desired mutations; 6xHis purification tag with TEV site (N, cleaved yes); made in house; host or cells: Spodoptera frugiperda Sf9 insect cells (baculovirus)
T2 sequence (Q9H3H5 1-408 R301C): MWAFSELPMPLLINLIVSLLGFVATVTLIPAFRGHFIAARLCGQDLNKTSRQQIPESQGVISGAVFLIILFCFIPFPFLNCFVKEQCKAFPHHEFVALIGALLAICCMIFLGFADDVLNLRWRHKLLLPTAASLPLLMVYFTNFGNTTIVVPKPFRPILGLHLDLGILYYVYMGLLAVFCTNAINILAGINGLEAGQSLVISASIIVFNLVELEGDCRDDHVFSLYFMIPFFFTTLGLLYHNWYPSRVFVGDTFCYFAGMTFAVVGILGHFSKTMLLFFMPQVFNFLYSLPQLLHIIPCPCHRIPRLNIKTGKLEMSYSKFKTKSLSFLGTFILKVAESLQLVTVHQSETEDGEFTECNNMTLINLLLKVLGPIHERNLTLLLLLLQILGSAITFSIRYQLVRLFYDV
Description: (§1) Samples with a volume of 40 μl were prepared containing 0.5 mg/ml protein and 50 μM compound or 5% DMSO in GFB. A glass capillary was dipped into each sample, with the capillary held horizontally to ensure that the capillary was full of the sample. The capillaries were placed on the capillary holder on the Nanotemper Prometheus. Technical triplicates of each sample were prepared, and each experiment was conducted with biological triplicates of each protein. PR.ThermControl software was used to run the experiment and analyse the data. A melting curve from 20 °C – 95 °C at 5 °C/min was performed. The minimum of the first derivative of the 330/350nm ratio was used to determine the Tm1/2.

[3] = target: T3, DPAGT1 Arg301His (Homo sapiens, UniProt Q9H3H5, R301H); experiment: as above; type: binding, H. sapiens; conditions: 50 μM compound
T3 construct: combined with the LIC-adapted primers to amplify the complete DPAGT1 gene, including the desired mutations; 6xHis purification tag with TEV site (N, cleaved yes); made in house; host or cells: Spodoptera frugiperda Sf9 insect cells (baculovirus)
T3 sequence (Q9H3H5 1-408 R301H): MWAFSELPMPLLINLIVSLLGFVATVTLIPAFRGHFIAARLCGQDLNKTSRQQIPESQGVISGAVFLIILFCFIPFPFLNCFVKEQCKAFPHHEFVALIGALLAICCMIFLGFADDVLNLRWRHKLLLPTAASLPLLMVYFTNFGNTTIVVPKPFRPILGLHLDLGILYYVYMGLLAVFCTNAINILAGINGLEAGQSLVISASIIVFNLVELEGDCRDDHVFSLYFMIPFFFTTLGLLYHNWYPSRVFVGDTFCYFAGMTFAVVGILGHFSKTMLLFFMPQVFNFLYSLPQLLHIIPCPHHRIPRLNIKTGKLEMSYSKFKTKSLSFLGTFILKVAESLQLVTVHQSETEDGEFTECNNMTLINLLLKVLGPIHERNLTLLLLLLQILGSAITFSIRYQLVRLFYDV
Description: as §1

[4] = target: T4, DPAGT1 Leu168Pro (Homo sapiens, UniProt Q9H3H5, L168P); experiment: as above; type: binding, H. sapiens; conditions: 50 μM compound
T4 construct: combined with the LIC-adapted primers to amplify the complete DPAGT1 gene, including the desired mutations; 6xHis purification tag with TEV site (N, cleaved yes); made in house; host or cells: Spodoptera frugiperda Sf9 insect cells (baculovirus)
T4 sequence (Q9H3H5 1-408 L168P): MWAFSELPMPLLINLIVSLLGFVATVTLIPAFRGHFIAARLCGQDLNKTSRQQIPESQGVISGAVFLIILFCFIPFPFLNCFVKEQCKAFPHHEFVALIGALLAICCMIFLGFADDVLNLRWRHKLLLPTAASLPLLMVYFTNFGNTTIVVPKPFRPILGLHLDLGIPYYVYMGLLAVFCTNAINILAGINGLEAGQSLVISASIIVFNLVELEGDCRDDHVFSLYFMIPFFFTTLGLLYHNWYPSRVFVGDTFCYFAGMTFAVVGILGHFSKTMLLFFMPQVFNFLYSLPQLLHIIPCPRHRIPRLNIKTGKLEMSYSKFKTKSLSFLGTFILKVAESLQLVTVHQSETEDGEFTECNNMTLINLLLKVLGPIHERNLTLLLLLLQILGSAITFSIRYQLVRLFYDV
Description: as §1

[5] = target: T5, DPAGT1 Tyr170Cys (Homo sapiens, UniProt Q9H3H5, Y170C); experiment: as above; type: binding, H. sapiens; conditions: 50 μM compound
T5 construct: combined with the LIC-adapted primers to amplify the complete DPAGT1 gene, including the desired mutations; 6xHis purification tag with TEV site (N, cleaved yes); made in house; host or cells: Spodoptera frugiperda Sf9 insect cells (baculovirus)
T5 sequence (Q9H3H5 1-408 Y170C): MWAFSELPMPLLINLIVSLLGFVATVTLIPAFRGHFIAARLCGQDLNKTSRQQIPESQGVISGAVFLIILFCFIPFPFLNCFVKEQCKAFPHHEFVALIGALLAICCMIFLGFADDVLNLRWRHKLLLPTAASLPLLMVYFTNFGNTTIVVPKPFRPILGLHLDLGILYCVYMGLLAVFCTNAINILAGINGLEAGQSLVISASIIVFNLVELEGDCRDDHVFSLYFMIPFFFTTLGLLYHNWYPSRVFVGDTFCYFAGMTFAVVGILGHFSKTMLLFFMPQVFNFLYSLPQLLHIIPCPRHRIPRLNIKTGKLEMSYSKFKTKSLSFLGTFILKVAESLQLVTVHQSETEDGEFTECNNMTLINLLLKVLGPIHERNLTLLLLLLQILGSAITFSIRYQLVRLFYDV
Description: as §1

[6] = target: T6, DPAGT1 Val264Gly (Homo sapiens, UniProt Q9H3H5, V264G); experiment: as above; type: binding, H. sapiens; conditions: 50 μM compound
T6 construct: H. sapiens DPAGT1 (1-408, Val264Gly, N-terminal 6 x HIS tag, TEV cleavage site); 6xHis purification tag with TEV site (N, cleaved yes); made in house; host or cells: Spodoptera frugiperda Sf9 insect cells (baculovirus)
T6 sequence (Q9H3H5 1-408 V264G): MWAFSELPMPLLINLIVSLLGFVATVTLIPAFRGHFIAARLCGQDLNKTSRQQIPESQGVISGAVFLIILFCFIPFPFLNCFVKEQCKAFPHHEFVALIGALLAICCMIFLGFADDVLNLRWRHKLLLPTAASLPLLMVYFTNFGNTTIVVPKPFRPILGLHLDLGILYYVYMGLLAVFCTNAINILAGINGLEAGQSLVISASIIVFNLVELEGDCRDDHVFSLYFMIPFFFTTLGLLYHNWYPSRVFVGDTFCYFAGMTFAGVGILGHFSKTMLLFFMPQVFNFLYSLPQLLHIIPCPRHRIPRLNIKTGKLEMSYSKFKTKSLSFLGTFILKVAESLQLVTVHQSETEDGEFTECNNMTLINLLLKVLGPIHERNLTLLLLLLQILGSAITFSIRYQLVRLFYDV
Description: as §1

[7] = target: T7, DPAGT1 WT (Homo sapiens, UniProt Q9H3H5); experiment: as above; type: binding, H. sapiens; conditions: 50 μM compound
T7 construct: H. sapiens DPAGT1 (1-408, N-terminal 6 x HIS tag, TEV cleavage site); 6xHis purification tag with TEV site (N, cleaved yes); made in house; host or cells: Spodoptera frugiperda Sf9 insect cells (baculovirus)
T7 sequence (Q9H3H5 1-408): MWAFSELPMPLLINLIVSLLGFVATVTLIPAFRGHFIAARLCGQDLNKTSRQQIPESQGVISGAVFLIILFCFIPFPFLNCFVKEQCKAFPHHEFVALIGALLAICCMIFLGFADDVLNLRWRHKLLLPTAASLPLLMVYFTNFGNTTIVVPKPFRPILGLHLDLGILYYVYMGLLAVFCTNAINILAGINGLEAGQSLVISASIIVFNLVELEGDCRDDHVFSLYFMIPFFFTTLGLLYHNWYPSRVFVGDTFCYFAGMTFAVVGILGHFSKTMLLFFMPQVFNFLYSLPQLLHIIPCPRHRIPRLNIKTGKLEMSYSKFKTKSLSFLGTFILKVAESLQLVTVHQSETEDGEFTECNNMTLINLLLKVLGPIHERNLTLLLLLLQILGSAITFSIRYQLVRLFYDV
Description: as §1

[8] = target: the molecule itself; experiment: crystal structure; space group P6(5)22, one DPAGT1 monomer in the asymmetric unit; dimer formed through a crystallographic 2-fold axis; apo WT, apo Val264Gly and Val264Gly complexes with UDP-GlcNAc/Mg2+ or tunicamycin
[9] = target: the molecule itself; experiment: native MS; purified DPAGT1 diluted to 10 uM, buffer exchanged into 200 mM ammonium acetate, 0.16% OGNG; Q Exactive modified for high-mass transmission, positive ion mode

## dolichyl phosphate [Dol-P]
[1]
  kcat: 0.00333 ± 0.0002 s⁻¹
[1]; read-out: apparent Km
  Km: 36.3 ± 7.2 µM
[2]
  Thermostability (Tm1/2) with added compound: 56.4±0.5 °C
[3]
  Thermostability (Tm1/2) with added compound: 56.2±1.2 °C
[4]
  Thermostability (Tm1/2) with added compound: 52.5±0.3 °C
[5]
  Thermostability (Tm1/2) with added compound: 54.0±1.0 °C
[6]
  Thermostability (Tm1/2) with added compound: 57.2±0.2 °C
[7]
  Thermostability (Tm1/2) with added compound: 58.5 °C

B1: H. sapiens DPAGT1 (1-408, Val264Gly, N-terminal 6 x HIS tag, TEV cleavage site) (enzyme, human, UniProt Q9H3H5 1-408, looked up)
chain: MWAFSELPMPLLINLIVSLLGFVATVTLIPAFRGHFIAARLCGQDLNKTSRQQIPESQGVISGAVFLIILFCFIPFPFLNCFVKEQCKAFPHHEFVALIGALLAICCMIFLGFADDVLNLRWRHKLLLPTAASLPLLMVYFTNFGNTTIVVPKPFRPILGLHLDLGILYYVYMGLLAVFCTNAINILAGINGLEAGQSLVISASIIVFNLVELEGDCRDDHVFSLYFMIPFFFTTLGLLYHNWYPSRVFVGDTFCYFAGMTFAGVGILGHFSKTMLLFFMPQVFNFLYSLPQLLHIIPCPRHRIPRLNIKTGKLEMSYSKFKTKSLSFLGTFILKVAESLQLVTVHQSETEDGEFTECNNMTLINLLLKVLGPIHERNLTLLLLLLQILGSAITFSIRYQLVRLFYDV
notes: human DPAGT1, residues 1-408, full length, with the missense variant Val264Gly found in some congenital myasthenic syndrome patients; After TEV cleavage an additional N-terminal serine remains (measured mass 46135 Da); Used for the apo, UDP-GlcNAc and tunicamycin crystal structures; also called Val264Gly DPAGT1; V264G variant; source: Sf9 insect cells (baculovirus), purified (OGNG/CHS extraction, …)
[8]
  binding result: binds

B2: H. sapiens DPAGT1 (1-408, N-terminal 6 x HIS tag, TEV cleavage site), wild type (enzyme, human, UniProt Q9H3H5 1-408, looked up)
chain: MWAFSELPMPLLINLIVSLLGFVATVTLIPAFRGHFIAARLCGQDLNKTSRQQIPESQGVISGAVFLIILFCFIPFPFLNCFVKEQCKAFPHHEFVALIGALLAICCMIFLGFADDVLNLRWRHKLLLPTAASLPLLMVYFTNFGNTTIVVPKPFRPILGLHLDLGILYYVYMGLLAVFCTNAINILAGINGLEAGQSLVISASIIVFNLVELEGDCRDDHVFSLYFMIPFFFTTLGLLYHNWYPSRVFVGDTFCYFAGMTFAVVGILGHFSKTMLLFFMPQVFNFLYSLPQLLHIIPCPRHRIPRLNIKTGKLEMSYSKFKTKSLSFLGTFILKVAESLQLVTVHQSETEDGEFTECNNMTLINLLLKVLGPIHERNLTLLLLLLQILGSAITFSIRYQLVRLFYDV
notes: human dolichyl-phosphate N-acetylglucosamine-phosphotransferase DPAGT1 (E.C. 2.7.8.15), residues 1-408, full-length wild type; After TEV cleavage an additional N-terminal serine remains (measured mass 46177 Da); Integral membrane protein kept in OGNG/CHS/cardiolipin (or DOPG) detergent-lipid buffer; also called WT DPAGT1; GPT; source: Sf9 insect cells (baculovirus), purified (OGNG/CHS extraction, …)
[9]
  stoichiometry N: 2
